Source: publication PMC8769378, “Underlining the Importance of Peripheral Protic Functional Groups to Enhance the Proton Exchange of Gd-Based MRI Contrast Agents” (Inorganic Chemistry, 2021)
Marks after values point to notes of the source that are not given here.

Legend:
[1] = Longitudinal relaxivity r1 and relaxivity vs pH profiles; format: physicochemical
Procedure: The longitudinal relaxivity values (r1) for GdL1 and GdL2, at 20 MHz (0.47 T), 298 K, and pH 7.4, are 4.7 and 5.1 mM^–1 s^–1, respectively. These are typical values of the clinical MRI contrast agents, i.e., low-molecular-weight q = 1 Gd^III chelates that tumble rapidly in solution.[1],[2] In particular, these values compare well with the r1 reported for GdHPDO3A[24] and other HPDO3A-like complexes such as GdHPDO3MA[25] or the series of Gd-hydroxypropylamide-DO3A (HPADO3A, Scheme 1)[7] complexes measured at the same experimental conditions.
(§1) At pH >3, the r1 values of GdL2 decrease with the increase of pH from 6.6 mM^–1 s^–1 to reach a plateau of 5.1 mM^–1 s^–1 around pH = 7.5. A further increase of the pH results in the slight increase of r1 reaching a maximum around pH = 9.5. Finally, at pH >9.5, another small decrease in r1 is observed. On the other hand, in the case of GdL1, the r1 values are independent from the pH in the range 4.0–7.5, whereas at pH >8.0, r1 increases up to 5.2 mM^–1 s^–1. The r1 values of GdL1 were measured in the pH range 4–10 in order to avoid the hydrolysis of the methyl ester. […] Then, the overall relaxivity, r1, is given by eq 1: [drawing 1] 1 where r1^is, r1^os, and r1^pr are the relaxivity components due to the inner and outersphere water molecules and the −OH group, respectively. r1^pr can be expressed as follows:[26]−[28] [drawing 2] 2
(§2) Proton relaxation measurements (1/T1) and the resulting 1/T1 NMRD profiles were measured on a fast-field cycling (FFC) Stelar SmarTracer relaxometer over a continuum of magnetic field strengths from 0.000 24 to 0.25 T (corresponding to 0.01–10 MHz proton Larmor frequencies). The relaxometer operates under computer control with an absolute uncertainty in 1/T1 of ±1%. […] Furthermore, the real temperature inside the probe head was additionally monitored by a Fluke 52 k/j digital thermometer (Fluke, Zürich, Switzerland). The gadolinium concentration was determined by measuring the bulk magnetic susceptibility shifts of the t-BuOH ^1H NMR signal. Additional data in the 20–120 MHz frequency range were obtained with a high field relaxometer (Stelar) equipped with the HTS-110 3T metrology cryogen-free superconducting magnet. […] The pH-dependent relaxivity measurements of GdL1 and GdL2 complexes were carried out by direct titration of the samples (GdL2, 3.0 < pH < 12.5; GdL1, 4 < pH < 10). The pH was adjusted by the stepwise addition of concentrated NaOH or HCl solution. Calculations were performed with the computer program Micromath Scientist, version 2.0 (Salt Lake City, UT).

[2] = Fit of relaxivity vs pH profiles: proton exchange kinetic and relaxation parameters; format: physicochemical; conditions: 0.15 M NaCl, 298 K
Procedure: as §1
According to the proposed reaction mechanism, the rate of acid-catalyzed proton exchange of GdL2 and Gd(HL2) is vH = kH[H3O^+][GdL2] and vH = kH[H3O^+][Gd(HL2)], where the kH rate constant characterizes the acid-catalyzed proton exchange processes of GdL2 and Gd(HL2) species. Because of the fast internal rearrangement, the alcoholic −OH and −COOH protons cannot be distinguished, and their lifetime is τp = (kH[H^+])^−1 in both cases. The rate of the base-catalyzed exchange between the alcoholic −OH proton of GdL1 and GdL2 and the bulk is vOH = kOH[OH^–][GdL] and τp = (kOH [OH^–])^−1, where the rate constant kOH characterizes the base-catalyzed proton exchange process for GdL1 and GdL2. Both acid- and base-catalyzed exchange mechanisms require the diffusion-controlled formation of an H-bonded complex and subsequently the rapid separation of the corresponding conjugate acid and base.[29] By considering the proposed reaction mechanism, eq 2 can be rewritten as follows: [drawing 3] 3 where αH = KGdLH–1[H^+] + KGdHLKGdLH–1[H^+]^2, ^GdHLr1^is+os, ^GdLr1^is+os, and ^GdLH–1r1^is+os are the sum of r1^is and r1^os for GdHL, GdL, and GdLH–1 species, respectively. Whereas for GdL2 the experimental data (Figure 1) were fitted to eq 3 (Table 2), in the case of GdL1, eq 3 was modified to account for the formation of GdL1 and Gd(L1)H–1 species and the base-catalyzed exchange of the −OH proton. Thus, the first and fourth terms and kH[H^+] of the denominator in the last term in the brackets were not considered.
as §2, with “Calculations were performed with the computer program Micromath Scientist, version 2.0 (Salt Lake City, UT).” left out

[3] = not fitted: fixed to the value determined for GdHPADO3A ref 7; cited from earlier work
[4] = Acid-assisted dissociation kinetics of Gd^III complexes followed by ^1H NMR relaxometry
From the text: In order to investigate the kinetic inertness of the Gd^III complex, the dissociation reactions of GdL2 were followed by ^1H NMR relaxometry (21 MHz and 298 K) in the presence of large acid excess ([HCl] = 0.01–1.0 M) to guarantee the pseudo-first-order kinetic conditions.
The kinetic inertness of the GdL2 was characterized by the rates of the dissociation reactions taking place in 0.01–1.0 M HCl solution. The dissociation reactions of the GdL2 were followed by measuring the longitudinal relaxation time of H2O protons (T1) with a Stelar relaxometer connected to a Bruker WP80 NMR electromagnet adapted to variable-field measurements (15–80 MHz proton Larmor frequency). The temperature was controlled with a Stelar VTC-91 airflow heater equipped with a calibrated copper–constantan thermocouple (uncertainty of ±0.1 °C). Measures were carried out at 21 MHz and 25 °C. The longitudinal relaxation time (T1) was measured with the “inversion recovery” method (180° – τ – 90°) by using 16 different τ values with a typical 90° pulse width of 6.5 μs, 4 scans. The measurements were performed with a 1 mM solution of the GdL2 complex. The relaxivity values were given as r1 = 1/T1p + 1/T1w where T1p and T1w are the relaxation times of the bulk water protons in the presence and absence of GdL2. The pseudo-first-order rate constants (kd) were calculated by fitting the relaxation rate (r1 = 1/T1p) data to eq 4. […] 4 where rr and rv are the relaxivity values of the reactants and the product (Gd^3+: r1p = 12.85 (2) mM^–1 s^–1, 21 MHz, 25 °C) and rt is the measured relaxivity at reaction time t. The temperature was maintained at 25 °C, and the ionic strength of the solutions was kept constant at [H^+] ≤ 0.15 M, [HCl] + [NaCl] = 0.15 M. The calculation of the kinetic parameters was performed by the fitting of the absorbance–time and relaxation rate–time data pairs with the Micromath Scientist computer program (version 2.0, Salt Lake City, UT).
Kinetic inertness of GdL2
In order to investigate the kinetic inertness of GdL2, the dissociation reactions of GdL2 were followed
by 1H-NMR relaxometry in the presence of large acid excess ([HCl]= 0.01 – 1.0 M) to guarantee the
pseudo-first-order kinetic conditions. The R1obs values as a function of time for the dissociation
In the presence of HCl excess, the dissociation of GdL2 can be treated as a pseudo-first-order process
and the rate of the reaction can be expressed by Eq. (S7)
where kd is a pseudo-first-order rate constant, [GdL]t and [GdL]tot are the concentrations of the GdL
species at time t and the total concentration of the complex, respectively. The rates of the dissociation
reactions were determined at different concentrations of HCl ([HCl]=0.01 – 1.0 M).
The proton assisted dissociation
of GdL2 might occur by the equilibrium formation of a protonated *Gd(H2L2) intermediate (Eq.
(S8)), which dissociates spontaneously (Eq. (S9)).
Gd(HL2) + H Gd(H2L2) (S8)

O=C([O-])CN1CCN(CC(=O)[O-])CCN(CC(O)C(=O)O)CCN(CC(=O)[O-])CC1.[Gd+3] (stereo not shown) [GdL2]
longitudinal relaxivity r1 ([1]; 20 MHz (0.47 T), 298 K, pH 7.4): 5.1 mM^–1 s^–1
r1 plateau ([1]; around pH = 7.5, 21 MHz, 298 K, 0.15 M NaCl): 5.1 mM^–1 s^–1
relaxivity increase by acid-catalyzed proton exchange ([1]; pH <6): ca. 30%
r1 at the acidic start of the pH profile ([1]; pH about 3, 21 MHz, 298 K, 0.15 M NaCl): 6.6 mM^–1 s^–1
^GdHLr1^is+os ([2]; 20 MHz): 5.11 ± 0.08 mM^–1 s^–1
^GdLH–1r1^is+os ([2]; 20 MHz): 4.93 ± 0.03 mM^–1 s^–1
^GdLr1^is+os ([2]; 20 MHz): 4.85 ± 0.04 mM^–1 s^–1
kH × 10^–11 ([2]; acid-catalyzed proton exchange): 1.5 ± 0.2 M^–1 s^–1
kOH × 10^–10 ([2]; base-catalyzed proton exchange): 0.17 ± 0.04 M^–1 s^–1
τM [3]: 20 ^c ns
kd at pH = 7.4 ([4]; calculated from acid-assisted dissociation only, pH = 7.4, 298 K, comparators from literature constants): 9.01 × 10^–12 s^–1
k1 (acid-catalyzed dissociation rate constant) ([4]; k1 = kGdH2L × K^HGd(HL), [HCl] = 0.01–1.0 M, 298 K): (2.3 ± 0.1) × 10^–4 M^–1 s^–1
K^HGdL ([4]; protonation constant of GdHL from kinetic data, 298 K): 0.5 ± 0.1 (GdHL) M^–1
